Laboratory results: patent US5424426A, “Dithiolanylglycine-containing HIV protease inhibitors of the hydroxyethylene isostere type” (Bayer Aktiengesellschaft, priority 1992, dated 1995)
Where a name gives a salt, the structure may show the parent alone.

Columns and labels:
[1] = molecular target: T1, HIV protease (HIV-1) (Human immunodeficiency virus type 1 group M subtype B, UniProt P04585); test: HIV-specific protease enzyme test (RP-HPLC analysis of synthetic peptide cleavage); type: biochemical; conditions: purified HIV protease, synthetic Gag cleavage-site peptide
T1 construct: purified HIV protease was incubated with synthetic peptide
Experimental: The results of the examples listed below were determined by the HIV test system described in the following references [cf. Hansen, J., Billich, S., Schulze, T., Sukrow, S. and Molling, K. (1988), EMBO Journal, Vol. 7, No. 6, pp. 1785-1791]: purified HIV protease was incubated with synthetic peptide which imitates a cleavage site in the Gag precursor protein and represents an in vivo cleavage site of the HIV protease. The resulting cleavage products of the synthetic peptide were analysed by means of reverse phase high performance liquid chromatography (RP-HPLC). The IC50 values given relate to the substance concentration which causes a 50% strength inhibition of the protease activity under the above-mentioned test conditions.

[2] = test system: HIV; test: HIV infection in cell culture, syncytia formation in PBLs; type: cell-based; conditions: HIV-infected normal human blood lymphocytes (PBLs); 50% suppression of virus-induced syncytia
Experimental: (§1) The HIV test was carried out with slight modifications by the method of Pauwels et al. [cf. Journal of Virological Methods 20, (1988), 309-321].
Normal human blood lymphocytes (PBLs) were enriched on Ficoll-Hypaque and stimulated in RPMI 1640, 20% foetal calf serum containing phytohaemagglutinin (90 μg/ml) and interleukin-2 (40 U/ml). For infection with the infectious HIV, PBLs were pelleted and the cell pellet was then suspended in 1 ml of HIV virus adsorption solution and incubated for 1 hour at 37° C.
The virus adsorption solution was centrifuged and the infected cell pellet taken up in growth medium so that a concentration of 1×10^5 cells per ml was established. The cells infected in such a way were pipetted at 1×10^4 cells/well into the wells of 96-well microtitre plates.
The first vertical row of the microtitre plate contained only growth medium and cells which had not been infected, but otherwise had been treated exactly as described above (cell control). The second vertical row of the microtitre plate contained only HIV-infected cells (virus control) in growth medium. The other wells contained the compounds according to the invention in different concentrations, starting from the wells of the 3rd vertical row of the microtitre plate, from which the test substances were diluted 2^10 times in steps of two.
The test batches were incubated at 37° C. until in the untreated virus control the syncytia formation typical of HIV occurred (between day 3 and 6 after infection), which was then assessed by microscopy.
(§2) The IC50 values were determined as the concentrations of the […] at which 50% (about 10 syncytia) of the virus-induced syncytia were suppressed by the treatment with the compound according to the invention.

[3] = test system: HIV; test: HIV infection in cell culture, H-9 cells; type: cell-based; conditions: HIV-infected H-9 cells
Experimental: as §1, §2

Molecule	IC50 [1] [nM]	IC50 [2] [nM]	IC50 [3] [nM]
CC[C@H](C)[C@H](NC(=O)[C@H](Cc1ccccc1)C[C@H](O)[C@H](CC1CCCCC1)NC(=O)[C@@H](NC(=O)OC(C)(C)C)C1SCCS1)C(=O)Nc1ccccn1 [Example 3, 1-{(2R,4S,5S)-5-[(2R)-N-(tert-Butoxycarbonyl)-2-amino-2-[2-(1,3-dithiolan-2-yl)]ethanoyl]amino-6-cyclohexyl-4-hydroxy-2-(phenyl)methyl-hexanoyl}-S-isoleucinyl-2-pyridylamide]	13 to 80	1000	–
CC[C@H](C)[C@H](NC(=O)C(C[C@H](O)[C@H](CC1CCCCC1)NC(=O)[C@@H](N)C1SCCS1)C(C)C)C(=O)Nc1ccccn1 (stereo partly drawn) [Example 2, 1-{(2R,S;4S,5S)-5-[(2R)-2-Amino-2-[2-(1,3-dithiolan-2-yl)]ethanoyl]-amino-6-cyclohexyl-4-hydroxy-2-(1-methyl)ethyl-hexanoyl}-S-isoleucinyl-2-pyridylamide dihydrochloride]	1.3 to 9	10000	–
1-{(2R,S,4S,5S) -5-[(2R)-N-(tert-Butoxycarbonyl)-2-amino-2-[2-(1,3-dithiolan-2-yl)]ethanoyl]amino-6-cyclohexyl-4-hydroxy-2-(1-methyl)ethyl-hexanoyl}-S-isoleucinyl2-pyridylamide [Example 1]	1.4 to 9	> 1000	–
C=CCC(C[C@H](O)[C@H](CC1CCCCC1)NC(=O)[C@@H](NC(=O)OC(C)(C)C)C1SCCS1)C(=O)N[C@H](C(=O)Nc1ccccn1)[C@@H](C)CC (stereo partly drawn) [Example 5, 1-{(2R,S,4S,5S)-5-[(2R)-N-(tert-Butoxycarbonyl)-2-amino-2-[2-(1,3-dithiolan-2-yl)]ethanoyl]amino-6-cyclohexyl-4-hydroxy-2-(2-propenyl)-hexanoyl}-S-isoleucinyl-2-pyridylamide]	1.4 to 9	400	–
CC[C@H](C)[C@H](NC(=O)[C@@H](Cc1ccccc1)C[C@H](O)[C@H](CC1CCCCC1)NC(=O)[C@@H](NC(=O)OC(C)(C)C)C1SCCS1)C(=O)Nc1ccccn1 [Example 4, 1-{(2S,4S,5S)-5-[(2R)-N-(tert-Butoxycarbonyl)-2-amino-2-[2-(1,3-dithiolan-2-yl)]ethanoyl]amino-6-cyclohexyl-4-hydroxy-2-(phenyl)methyl-hexanoyl}-S-isoleucinyl2-pyridylamide]	16 to 80	1000	–
1-{(2R,4S,5S)-5-[(2S)-3-(tert-Butylsulphonyl)-2-(1-naphthylmethyl)propanoyl]-(2R)-N-(tert-butoxycarbonyl)-2-amino-2-[2-(1,3-dithiolan-2-yl)ethanoyl]amino-6-cyclohexyl-4-hydroxy-2-(1-methyl)ethyl-hexanoyl}-S-isoleucinyl-2-pyridylamide [Example 8]	1.2 to 9	1000	–
1-}(2S,4S,5S)-5-[(2S)-3-(tert-Butylsulphonyl)-2-(1-naphthylmethyl)propanoyl]-(2R)-N-(tert-butoxycarbonyl)-2-amino-2-[2-(1,3-dithiolan-2-yl)]ethanoyl]amino-6-cyclohexyl-4-hydroxy-2-(1-methyl)ethyl-hexanoyl}-S-isoleucinyl-2-pyridylamide [Example 9]	1 to 9	40	11
